Toxic doses and inconclusive results are not listed. Rule as the data show it: active = T/C of 150% or more; inactive = T/C below 125%. Square brackets hold non-standard residues; d marks the D form. Peptide text beside a SMILES is read from it. * marks the point of attachment. ξ: configuration not given here. Cbz = O=C(OCc1ccccc1)*; ξL = CC(C)CC(N)C(=O)O
Test system: L1210 leukemia ip in BDF1 mice, survival T/C
Assay: NCI In Vivo Anticancer Drug Screen. Data for tumor model L1210 Leukemia (intraperitoneal) in B6D2F1 (BDF1) mice
Conditions: endpoint: mean survival time, higher = longer survival
Procedure, shortened: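 Transplantable tumor model; survival measured in treated vs vehicle control mice. Value = treated/control.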

[1] = dose: 100.0 mg/kg/injection, schedule: Q04DX003 (ip), vehicle: Klucel (hydroxypropylcellulose) (HPC)
[2] = dose: 200.0 mg/kg/injection, schedule: Q04DX003 (ip), vehicle: Klucel (hydroxypropylcellulose) (HPC)
[3] = dose: 400.0 mg/kg/injection, schedule: Q04DX003 (ip), vehicle: Klucel (hydroxypropylcellulose) (HPC)
[4] = dose: 100.0 mg/kg/injection, schedule: Q01DX001 (ip), vehicle: saline
[5] = dose: 200.0 mg/kg/injection, schedule: Q01DX001 (ip), vehicle: saline
[6] = dose: 400.0 mg/kg/injection, schedule: Q01DX001 (ip), vehicle: saline
[7] = dose: 100.0 mg/kg/injection, schedule: Q04DX002 (ip), vehicle: Klucel (hydroxypropylcellulose) (HPC)
[8] = dose: 200.0 mg/kg/injection, schedule: Q04DX002 (ip), vehicle: Klucel (hydroxypropylcellulose) (HPC)
[9] = dose: 100.0 mg/kg/injection, schedule: Q01DX009 (ip), vehicle: Klucel (hydroxypropylcellulose) (HPC)
[10] = dose: 200.0 mg/kg/injection, schedule: Q01DX009 (ip), vehicle: Klucel (hydroxypropylcellulose) (HPC)
[11] = dose: 400.0 mg/kg/injection, schedule: Q01DX009 (ip), vehicle: Klucel (hydroxypropylcellulose) (HPC)
[12] = dose: 50.0 mg/kg/injection, schedule: Q01DX009 (ip), vehicle: Klucel (hydroxypropylcellulose) (HPC)
[13] = dose: 100.0 mg/kg/injection, schedule: Q04DX003 (ip), vehicle: saline
[14] = dose: 200.0 mg/kg/injection, schedule: Q04DX003 (ip), vehicle: saline

Measured: T/C

CC/C(Cc1ccc(O)cc1)=N\N=C(N)N
inactive: dose: 15.0 mg/kg/injection, schedule: Q01DX Z (ip), vehicle: methylcellulose (MC) 97 % of control | dose: 30.0 mg/kg/injection, schedule: Q01DX Z (ip), vehicle: methylcellulose (MC) 94 % of control | dose: 30.0 mg/kg/injection, schedule: Q01DX Z (oral), vehicle: methylcellulose (MC) 92 % of control | dose: 60.0 mg/kg/injection, schedule: Q01DX Z (ip), vehicle: methylcellulose (MC) 97 % of control | dose: 60.0 mg/kg/injection, schedule: Q01DX Z (oral), vehicle: methylcellulose (MC) 98 % of control | dose: 240.0 mg/kg/injection, schedule: Q01DX Z (oral), vehicle: methylcellulose (MC) 93 % of control

CC1SCSCS1
inactive: [1] 111 % of control | [2] 88 % of control | [3] 98 % of control

COC(=O)C(CC(C)C)NC(=O)CNC(=O)CNC(=O)OCc1ccccc1 (stereo not drawn) (Cbz-Gly-Gly-[ξL]-OMe)
inactive: [1] 105 % of control | [2] 96 % of control | [3] 96 % of control

FC(F)(F)C1=N/C(=C2\N=C(C(F)(F)F)N=C2Cl)C(Cl)=N1
inactive: dose: 25.0 mg/kg/injection, schedule: Q01DX009 (ip), vehicle: saline with Tween-80 94 % of control | dose: 50.0 mg/kg/injection, schedule: Q01DX009 (ip), vehicle: saline with Tween-80 96 % of control

COCc1ccc([N+](=O)[O-])o1
inactive: [4] 101 % of control | [5] 103 % of control | [6] 101 % of control

O=[N+]([O-])c1cccc(Cl)c1F
inactive: [7] 101 % of control | [8] 96 % of control

Cc1c(Cl)cccc1NC(=O)Nc1ccccc1F
inactive: [9] 91 % of control | [7] 97 % of control | [10] 106 % of control | [8] 97 % of control | [11] 96 % of control | dose: 400.0 mg/kg/injection, schedule: Q04DX002 (ip), vehicle: Klucel (hydroxypropylcellulose) (HPC) 94 % of control

CC(=O)N=c1ccccn1O
inactive: dose: 100.0 mg/kg/injection, schedule: Q04DX002 (ip), vehicle: saline 96 % of control | dose: 200.0 mg/kg/injection, schedule: Q04DX002 (ip), vehicle: saline 105 % of control

Cc1ccccc1N=Nc1c(O)n(-c2ccccc2)c(=S)n(-c2ccccc2)c1=O
inactive: dose: 37.5 mg/kg/injection, schedule: Q01DX001 (ip), vehicle: saline with Tween-80 99 % of control | dose: 75.0 mg/kg/injection, schedule: Q01DX001 (ip), vehicle: saline with Tween-80 90 % of control | dose: 150.0 mg/kg/injection, schedule: Q01DX001 (ip), vehicle: saline with Tween-80 99 % of control

CCN1C(=O)CC(=O)N(CC)C1=S
inactive: [12] 103 % of control | [9] 101 % of control | [1] 94 % of control | [10] 97 % of control | [2] 89 % of control

C=C(Cl)CSC(=S)N(CC)CC
inactive: dose: 50.0 mg/kg/injection, schedule: Q01DX009 (ip), vehicle: saline sonified 94 % of control | dose: 100.0 mg/kg/injection, schedule: Q01DX009 (ip), vehicle: saline sonified 94 % of control | [13] 105 % of control | dose: 200.0 mg/kg/injection, schedule: Q01DX009 (ip), vehicle: saline sonified 105 % of control | [14] 102 % of control

COc1ccccc1-n1c(O)c(N=Nc2ccc(Br)cc2)c(=O)n(-c2ccc(I)cc2)c1=S
inactive: dose: 50.0 mg/kg/injection, schedule: Q01DX001 (ip), vehicle: Klucel (hydroxypropylcellulose) (HPC) 102 % of control | dose: 100.0 mg/kg/injection, schedule: Q01DX001 (ip), vehicle: Klucel (hydroxypropylcellulose) (HPC) 112 % of control | dose: 200.0 mg/kg/injection, schedule: Q01DX001 (ip), vehicle: Klucel (hydroxypropylcellulose) (HPC) 102 % of control

NC(N)=NCCCC(N)C(=O)NCCCCCCNC(=O)C(N)CCCN=C(N)N (stereo unspecified)
inactive: dose: 10.0 mg/kg/injection, schedule: Q01DX Z (ip), vehicle: saline 97 % of control | dose: 30.0 mg/kg/injection, schedule: Q01DX Z (ip), vehicle: saline 108 % of control | dose: 100.0 mg/kg/injection, schedule: Q01DX Z (ip), vehicle: saline 90 % of control

O=C(NCCCNC(=O)Nc1cccc(C2=NCCN2)c1)Nc1cccc(C2=NCCN2)c1
inactive: dose: 8.0 mg/kg/injection, schedule: Q01DX Z (ip), vehicle: carboxymethylcellulose (CMC) 104 % of control | dose: 16.0 mg/kg/injection, schedule: Q01DX Z (ip), vehicle: carboxymethylcellulose (CMC) 111 % of control | dose: 32.0 mg/kg/injection, schedule: Q01DX Z (ip), vehicle: carboxymethylcellulose (CMC) 104 % of control | dose: 64.0 mg/kg/injection, schedule: Q01DX Z (ip), vehicle: carboxymethylcellulose (CMC) 94 % of control

O=[N+]([O-])CC1(O)CCCCC1
inactive: dose: 25.0 mg/kg/injection, schedule: Q01DX009 (ip), vehicle: Klucel (hydroxypropylcellulose) (HPC) 97 % of control | [12] 98 % of control

CCCCCCCC(CCCCCC)(OO)C(=O)OC (stereo unspecified)
inactive: dose: 25.0 mg/kg/injection, schedule: Q04DX002 (ip), vehicle: saline with Tween-80 100 % of control | dose: 50.0 mg/kg/injection, schedule: Q04DX002 (ip), vehicle: saline with Tween-80 95 % of control | dose: 100.0 mg/kg/injection, schedule: Q04DX002 (ip), vehicle: saline with Tween-80 91 % of control

CC(=O)OC1COC(n2cnc3c(=S)nc(N)[nH]c32)C(OC(C)=O)C1OC(C)=O (stereo unspecified)
inactive: [4] 100 % of control | [5] 97 % of control | [6] 97 % of control

C(=N\Nc1ccccc1)/c1cc2c3c(c1)CCCN3CCC2
inactive: dose: 100.0 mg/kg/injection, schedule: Q01DX009 (ip), vehicle: gum acacia 94 % of control | dose: 200.0 mg/kg/injection, schedule: Q01DX009 (ip), vehicle: gum acacia 91 % of control | dose: 400.0 mg/kg/injection, schedule: Q01DX009 (ip), vehicle: gum acacia 94 % of control

O=C(O)c1ccc(Oc2ccc(C(=O)O)cc2)cc1
inactive: [9] 103 % of control | [1] 97 % of control | [10] 109 % of control | [2] 100 % of control | [11] 100 % of control | [3] 105 % of control

CC/C(CC(C)CC)=N\O (stereo unspecified)
inactive: dose: 100.0 mg/kg/injection, schedule: Q01DX009 (ip), vehicle: saline 101 % of control | [13] 93 % of control | dose: 200.0 mg/kg/injection, schedule: Q01DX009 (ip), vehicle: saline 101 % of control | [14] 98 % of control | dose: 400.0 mg/kg/injection, schedule: Q01DX009 (ip), vehicle: saline 101 % of control | dose: 400.0 mg/kg/injection, schedule: Q04DX003 (ip), vehicle: saline 91 % of control

O=C(O)CCCCCCC(=O)OCC(=O)c1ccc(-c2ccccc2)cc1
inactive: [4] 94 % of control | [5] 91 % of control | [6] 91 % of control

Source: PubChem BioAssay AID248 (DTP/NCI, 2004)
